According to patent US5965088A, “Method for providing rapid disinfection of contact lenses” (priority 1997, dated 1999):
Values joined by “and” are separate entries in the source; they are usually repeats but may differ in a detail not shown here. Identical values can stand only once.

Experiments:
[1] = Ocular irritation screening study in the rabbit (Draize score, soaked soft lenses); format: in vivo; design: key to Draize macroscopic ocular score (weighted total): Draize weighted total score; max 110 per eye; settings: rabbit, in vivo, topical or ocular; 4 ppm formulation; rabbits; read-out: safety margin relative to initial onset of abnormal ocular health
Experimental: (§1) A series of formulations were prepared in which the amount of alexidine were, respectively 4 ppm (test 1), 6 ppm (test 2), 8 ppm (test 3), 10 ppm (test 4), 12 ppm (test 5), 15 ppm (test 6), 18 ppm (test 7), 22 ppm (test 8), 27 ppm (test 9), 33 ppm (test 10), 40 ppm (test 11) and 50 ppm (test 12). These test solutions of alexidine were used in soaking J&J Sure Vue® (etafilcon A) lenses (soft lenses) in 2.5 mL of solution for 1 week or more in order to reach maximal alexidine uptake.
(§2) An ocular irritation screening study was conducted in the rabbit to determine the threshold for ocular irritation. Eyes treated with the lenses were compared to a contralateral control eye. Treated lenses were placed on the right eye of rabbits; control lenses were placed on the left eye. Any lenses displaced from the eyes during the lens wear day were reinserted after rinsing with 0.9% sodium chloride USP solution (SC). Eyes were examined with the aid of a direct light source before lens placement, at 50-70 minutes, 7-8 hours, 23-24 hours, and 30-32 hours after placement. Macroscopic observations were recorded in accordance with criteria in the Draize^* score system. The maximum total score is the sum of all scores obtained for the cornea, iris, and conjunctivae. Total maximum score possible is 110 per eye, 80 with respect to the cornea, 10 with respect to the iris, and 20 with respect to the conjunctivae.
(§3) *Draize, J. H., G. Woodward and H. O. Calvery. 1944. Methods for the study of irritation and toxicity of substances applied topically to the skin and mucous membranes. J. Pharmacol. Exp. Ther. 82:377-390.

[2] = tested on: rabbit eye (cornea, iris, conjunctivae); assay: as above; format: in vivo; design: key to Draize macroscopic ocular score (weighted total): Draize weighted total score; max 110 per eye; settings: for Draize macroscopic ocular score (weighted total): right (test) eye
Experimental: as §1, §2, §3

In the case of CCCCC(CC)CNC(=N)NC(=N)NCCCCCCNC(=N)NC(=N)NCC(CC)CCCC.Cl.Cl (stereo not drawn) [Alexidine.2HCl, 1,1 '-hexamethylenebis(5-(2-ethylhexyl)-biguanide) dihydrochloride], the selectivity ratio [1] is reported as 2.5, the “safety in disinfecting soft lenses” value ([2]; 4.0 ppm, based on rabbit studies) is reported as “very safe for human use in disinfecting soft lenses” and the “Draize macroscopic ocular score (weighted total)” value (from here on “Draize macroscopic ocular score”) ([2]; 4 ppm, 7-8 hours post lens) is reported as 2. The “Draize macroscopic ocular score” value ([2]; 4 ppm, 23-24 hours post lens) was 2, the “Draize macroscopic ocular score” value ([2]; 4 ppm, 30-32 hours post lens) was 2 and the “Draize macroscopic ocular score” value ([2]; 4 ppm, 50-70 minutes post lens) was 2. The “Draize macroscopic ocular score” value ([2]; 6 ppm, 7-8 hours post lens) was 2, the “Draize macroscopic ocular score” value ([2]; 6 ppm, 23-24 hours post lens) was 2 and the “Draize macroscopic ocular score” value ([2]; 6 ppm, 30-32 hours post lens) was 2. For the same compound, the “Draize macroscopic ocular score” value ([2]; 6 ppm, 50-70 minutes post lens) was 2, the “Draize macroscopic ocular score” value ([2]; 8 ppm, 7-8 hours post lens) was 2 and the “Draize macroscopic ocular score” value ([2]; 8 ppm, 23-24 hours post lens) was 2. For the same compound, the “Draize macroscopic ocular score” value ([2]; 8 ppm, 30-32 hours post lens) was 2, the “Draize macroscopic ocular score” value ([2]; 8 ppm, 50-70 minutes post lens) was 2 and the “Draize macroscopic ocular score” value ([2]; 10 ppm, 7-8 hours post lens, dihydrochloride) was 4 and 2. For the same compound, the “Draize macroscopic ocular score” value ([2]; 10 ppm, 50-70 minutes post lens) was 2, the “Draize macroscopic ocular score” value ([2]; 12 ppm, 7-8 hours post lens) was 2 and the “Draize macroscopic ocular score” value ([2]; 12 ppm, 23-24 hours post lens) was 2. The “Draize macroscopic ocular score” value ([2]; 12 ppm, 30-32 hours post lens) was 2, the “Draize macroscopic ocular score” value ([2]; 12 ppm, 50-70 minutes post lens) was 2 and the “Draize macroscopic ocular score” value ([2]; 15 ppm, 7-8 hours post lens) was 4. For the same compound, the “Draize macroscopic ocular score” value ([2]; 15 ppm, 30-32 hours post lens) was 2, the “Draize macroscopic ocular score” value ([2]; 15 ppm, 50-70 minutes post lens, dihydrochloride) was 2 and 4 and the “Draize macroscopic ocular score” value ([2]; 18 ppm, 7-8 hours post lens) was 6. For the same compound, the “Draize macroscopic ocular score” value ([2]; 18 ppm, 23-24 hours post lens) was 2, the “Draize macroscopic ocular score” value ([2]; 18 ppm, 30-32 hours post lens) was 2 and the “Draize macroscopic ocular score” value ([2]; 18 ppm, 50-70 minutes post lens) was 2. For the same compound, the “Draize macroscopic ocular score” value ([2]; 22 ppm, 7-8 hours post lens) was 11, the “Draize macroscopic ocular score” value ([2]; 22 ppm, 23-24 hours post lens) was 2 and the “Draize macroscopic ocular score” value ([2]; 22 ppm, 30-32 hours post lens) was 2. For the same compound, the “Draize macroscopic ocular score” value ([2]; 22 ppm, 50-70 minutes post lens) was 2, the “Draize macroscopic ocular score” value ([2]; 27 ppm, 50-70 minutes post lens) was 2 and the “conjunctival reaction clearly defined” value ([2]; lenses soaked in solution) was 15 ppm. For the same compound, the corneal opacity observed ([2]; lenses soaked in solution) was 27 ppm, the iridial involvement observed ([2]; lenses soaked in solution) was 22 ppm and the “first signs of increased ocular toxicity (conjunctival reactions)” value ([2]; lenses soaked, after 7-8 hours of lens wear) was 10 ppm.
